The values that follow come from PMC10867124, “Plant root associated chitinases: structures and functions” (Frontiers in Plant Science, 2024).

For one data set, the target named is T1, ZmChi19A (Zea mays, UniProt B6TR38, E147A/E169A).
T1 construct: cDNA from maize root; signal peptide removed; N-terminal 10xHis-SUMO tag kept, TEV site; CBD, catalytic domain and flexible C-terminal domain; pET28b, E. coli; FPLC-purified
T1 sequence (B6TR38 26-334 E147A/E169A limits assumed): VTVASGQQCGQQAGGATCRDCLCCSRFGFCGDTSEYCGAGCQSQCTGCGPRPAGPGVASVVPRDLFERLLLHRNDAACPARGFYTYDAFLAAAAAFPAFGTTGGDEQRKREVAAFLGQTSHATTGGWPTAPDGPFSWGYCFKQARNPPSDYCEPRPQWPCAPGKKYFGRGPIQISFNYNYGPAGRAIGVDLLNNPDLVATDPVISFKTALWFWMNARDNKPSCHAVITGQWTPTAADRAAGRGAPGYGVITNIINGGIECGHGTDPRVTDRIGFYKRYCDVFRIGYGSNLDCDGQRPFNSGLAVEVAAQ
Nature of the data set: 4-MU release fluorescence, relative activity. The format is biochemical. To be noted: SUMO fusion; catalytic residues mutated.

Substrate in data set [1]: CC(=O)N[C@H]1[C@H](Oc2ccc3c(C)cc(=O)oc3c2)O[C@H](CO)[C@@H](O[C@@H]2O[C@H](CO)[C@@H](O[C@@H]3O[C@H](CO)[C@@H](O)[C@H](O)[C@H]3NC(C)=O)[C@H](O)[C@H]2NC(C)=O)[C@@H]1O
Nature of the data set: 4-MU release fluorescence, Langmuir fit. The format is biochemical, Chitinophaga oryzae. To be noted: 50 °C, pH 8.

Turning to `CC(=O)N[C@H]1[C@H](Oc2ccc3c(C)cc(=O)oc3c2)O[C@H](CO)[C@@H](O[C@@H]2O[C@H](CO)[C@@H](O[C@@H]3O[C@H](CO)[C@@H](O)[C@H](O)[C@H]3NC(C)=O)[C@H](O)[C@H]2NC(C)=O)[C@@H]1O` [4-MU-GlcNAc3], at ZmChi19A, the “4-MU release fluorescence, relative activity” value was “ZmChi19A(E147A,E169A) showed almost complete loss of activity”.

B1: CspCh18A (Chitinophaga oryzae) (protein)
chain: CKKDEARPDNPQTKSEPRVETVTKAGGKSVCYVEVNSNSLLNTGKYTLTTGGQQLFDIAIIFAANINYNTTTGKAVLYNNPNVTNVLVNKNTQIVPLQNKGMKVLLSILGNHQGAGFCNFTSRAAAKAFAQQLADTANYYGLDGIDFDDEYADYGNNGLPQPNDSSFVMLLDELRKLMPTKIISFYYYGPAASRLSWGGKKAGDFINYSWNAMYGTYSVPNVAGLTKANLGPAAVDIQATSQSTANWLATQTKNNGYGIYLWYNLTSTDKHVYFSGVSNILYGSSVTYTP
notes: signal peptide removed; TEV site, His tag; pET28a, E. coli; TIM-barrel catalytic domain, no CBD; FPLC-purified
For the molecule B1, the Km (usually the substrate concentration at which the rate is half of its maximum) in data set [1] was found to be 37 µM.
